Source: the supplement of paper PMC11616607

Assays:
Assay in all cases: drug sensitivity score (DSS) from 5-point dose-response viability curve (DSS (area-under-curve based score)); higher = more sensitive (stronger growth inhibition or killing); extreme values may be limits of the assay
Details in all cases: exposure time: 72 h; concentration range: 5 concentrations over 10,000-fold range
CAOV3 = tested on: CAOV3
Procedure, shortened: (§1)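 Drug sensitivity scores were calculated in Breeze software for each cell line and drug pair; higher scores indicate more sensitivity. A score of zero indicates no response. The underlying assay used 384-well plates: drugs were placed by an Echo 550 acoustic dispenser at five concentrations spanning a 10,000-fold range, 1,500 ovarian cancer or normal ovarian cells were added per well, and cells were kept 3 days at 37°C, 5% CO2. Viability was then measured with CellTiter-Glo luminescence on a PHERAstar FS.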

COV318 = tested on: COV318
Procedure, shortened: as §1

COV362 = tested on: COV362
Procedure, shortened: as §1

HOSE1C = tested on: HOSE1C
Procedure, shortened: as §1

HOSE2C = tested on: HOSE2C
Procedure, shortened: as §1

JHOS2 = tested on: JHOS2
Procedure, shortened: as §1

Kuramochi = tested on: Kuramochi
Procedure, shortened: as §1

OV90 = tested on: OV90
Procedure, shortened: as §1

OVCAR4 = tested on: OVCAR4
Procedure, shortened: as §1

OVCAR5 = tested on: OVCAR5
Procedure, shortened: as §1

OVCAR8 = tested on: OVCAR8
Procedure, shortened: as §1

Ovsaho = tested on: Ovsaho
Procedure, shortened: as §1

| SMILES | drug sensitivity score (CAOV3) | drug sensitivity score (COV318) | drug sensitivity score (COV362) | drug sensitivity score (HOSE1C) | drug sensitivity score (HOSE2C) | drug sensitivity score (JHOS2) | drug sensitivity score (Kuramochi) | drug sensitivity score (OV90) | drug sensitivity score (OVCAR4) | drug sensitivity score (OVCAR5) | drug sensitivity score (OVCAR8) | drug sensitivity score (Ovsaho) |
| --- | --- | --- | --- | --- | --- | --- | --- | --- | --- | --- | --- | --- |
| CN(C)C[C@@H]1CCn2cc(c3ccccc32)C2=C(C(=O)NC2=O)c2cn(c3ccccc23)CCO1 [Ruboxistaurin] | 7 | 7.7 | 2.5 | 6.3 | 6.2 | 8.8 | 7.2 | 6.4 | 2.5 | 5.6 | 6.6 | 9.2 |
| CC(C)(O)CNc1nc(Nc2ccnc(C(F)(F)F)c2)nc(-c2cccc(C(F)(F)F)n2)n1 [Enasidenib] | 0 | 0 | 1.1 | 0 | 0 | 0 | 0 | 0 | 0 | 0 | 0.9 | 0 |
| Cc1sc2c(c1C)C(c1ccc(Cl)cc1)=N[C@@H](CC(=O)Nc1ccc(O)cc1)c1nnc(C)n1-2 [Birabresib] | 13.1 | 1.7 | 2.3 | 15.1 | 13.4 | 5.4 | 12.5 | 10.2 | 8.1 | 10.8 | 12.6 | 12.9 |
| O=C(Nc1ccc(OC(F)(F)Cl)cc1)c1cnc(N2CC[C@@H](O)C2)c(-c2cc[nH]n2)c1 [Asciminib] | 0 | 0 | 0 | 0 | 0 | 0 | 0.2 | 0 | 0.3 | 0.4 | 0 | 0 |
| NC[C@@](O)(c1ccc(Cl)cc1)c1ccc(-c2cn[nH]c2)cc1 | 0.5 | 3.3 | 0 | 8.6 | 6.1 | 2.8 | 0.1 | 0 | 1.1 | 0.7 | 1.1 | 0 |
| Clc1ccccc1C(c1ccccc1)(c1ccccc1)n1cccn1 [TRAM-34] | 0 | 0 | 0 | 0 | 0 | 0 | 0 | 0 | 0 | 5 | 0 | 0 |
| Cn1cnc2c(F)c(Nc3ccc(Br)cc3Cl)c(C(=O)NOCCO)cc21 [Selumetinib] | 11.2 | 0 | 5.8 | 0.2 | 0 | 5.4 | 5.4 | 20.1 | 4.2 | 11.2 | 2.1 | 11.1 |
| CN(C)CC#Cc1ccc(OCCCc2sc(N3CCc4cccc(C(=O)Nc5nc6ccccc6s5)c4C3)nc2C(=O)O)c(F)c1 | 7.5 | 1.3 | 1.6 | 22.7 | 6.2 | 1.2 | 1.6 | 19.2 | 3.5 | 4.1 | 0 | 10.4 |
| Cc1ccc(NC(=O)c2ccc(CN3CCN(C)CC3)cc2)cc1Nc1nc(-c2cccnc2)cs1 [Masitinib] | 0.2 | 1.7 | 1.4 | 1.8 | 1.3 | 1.7 | 3.4 | 5.2 | 2.1 | 4.4 | 4.1 | 0.8 |
| NC(=O)/C(=C/n1cnc(-c2cc(C(F)(F)F)cc(C(F)(F)F)c2)n1)c1cncnc1 [Eltanexor] | 18.9 | 7.5 | 10.9 | 34.6 | 15.7 | 19 | 10.9 | 13.2 | 13.7 | 14.8 | 21.5 | 19.3 |
| CC[C@@H](C(=O)[C@@H](C)[C@@H](O)[C@H](C)[C@@H]1O[C@@H]([C@@H](CC)C(=O)O)CC[C@@H]1C)[C@H]1O[C@]2(C=C[C@@H](O)[C@]3(CC[C@@](C)([C@H]4CC[C@](O)(CC)[C@H](C)O4)O3)O2)[C@H](C)C[C@@H]1C [Salinomycin] | 15.4 | 13.4 | 8.2 | 21.2 | 22.1 | 18.3 | 21 | 19.4 | 14.2 | 13.2 | 17.9 | 27.1 |
| CC(=O)Nc1ccc(C(=O)Nc2ccccc2N)cc1 [Tacedinaline] | 0 | 0 | 0 | 0.6 | 0.7 | 0 | 1.7 | 1.1 | 0.1 | 3.4 | 0 | 0 |
| CN(c1ncccc1CNc1nc(Nc2ccc3c(c2)CC(=O)N3)ncc1C(F)(F)F)S(C)(=O)=O | 7.4 | 1.9 | 3.5 | 4.6 | 3.9 | 5.1 | 5.5 | 5.9 | 4.7 | 6.1 | 4.3 | 5.7 |
| COc1ccc(COc2cc3oc(=O)c4cc(C(C)O)ccc4c3cc2OC)cc1 (configuration not stated) [Palomid-529] | 0 | 1.2 | 0 | 0 | 0 | 0 | 0.1 | 0.8 | 0.6 | 0 | 0 | 0.1 |
| CC(=O)N(O)CCCCCNC(=O)CCC(=O)N(O)CCCCCNC(=O)CCC(=O)N(O)CCCCCN [Deferoxamine] | 2.8 | 2.2 | 0.5 | 1.8 | 0 | 0.7 | 3.7 | 4.5 | 3.4 | 2.6 | 2.7 | 3.8 |
| COc1cc(CCc2cc(NC(=O)c3ccc(N4CC(C)NC(C)C4)cc3)n[nH]2)cc(OC)c1 (configuration not stated) [AZD4547] | 0 | 0 | 0 | 0.8 | 5.8 | 0 | 0 | 0 | 0 | 0 | 0 | 0 |
